In patent US6878736B1, “Histamine H3 receptor ligands” (James Black Foundation Limited, priority 1998, dated 2005):
Structures can show the parent of a compound that is named as a salt.

Key:
[1] = target: T1, Histamine H3 receptor (Cavia porcellus, UniProt Q9JI35); test: Histamine H3 radioligand binding assay, guinea pig cortex ([3H]-R-α-methylhistamine); conditions: guinea pig cortex membranes, competition with 1 nM [3H]-R-α-methylhistamine; for Ki: read-out: pKi (Guinea pig cortex) (converted)
T1 sequence (Q9JI35 whole entry): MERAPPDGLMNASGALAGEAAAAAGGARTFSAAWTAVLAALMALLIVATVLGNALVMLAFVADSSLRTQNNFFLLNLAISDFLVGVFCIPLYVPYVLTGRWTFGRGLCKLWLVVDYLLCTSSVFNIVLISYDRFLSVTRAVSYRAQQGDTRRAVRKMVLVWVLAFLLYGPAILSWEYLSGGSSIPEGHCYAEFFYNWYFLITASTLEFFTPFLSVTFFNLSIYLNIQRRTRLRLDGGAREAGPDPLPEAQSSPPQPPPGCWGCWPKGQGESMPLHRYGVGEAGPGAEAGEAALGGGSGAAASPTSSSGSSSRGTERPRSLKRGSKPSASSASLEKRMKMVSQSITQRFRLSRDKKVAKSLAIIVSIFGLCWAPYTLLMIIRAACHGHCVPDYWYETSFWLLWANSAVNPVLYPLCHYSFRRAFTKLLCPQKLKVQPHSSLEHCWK
Experimental: The compounds of the invention were also tested in a guinea pig cortex binding assay, as follows:
Histamine H3 Radioligand Binding Assay—Guinea Pig Cortex
Male Dunkin Hartley guinea pigs (200-300 g) were used. The whole brain was removed and immediately placed in ice-cold 20 mM Hepes-NaOH buffer (pH7.4 at 21±3° C.). The cortex was dissected, weighed and homogenised in ice-cold 20 mM Hepes-NaOH buffer (pH7.4 at 21±3° C.) (50 ml/guinea-pig cortex) using a polytron (Kinematica AG; PT-DA 3020/2TS, 3×3 s). The homogenate was centrifuged at 100×g for 5 min and the supernatants pooled and stored at 4° C. The pellets were rehomogenised in fresh ice-cold buffer (80 ml) and recentrifuged (100×g for 5 min). The supernatants were pooled and pellets rehomogenised and recentrifuged (100×g for 5 min). All supernatants were pooled and centrifuged at 39,800×g for 12 min at 4° C. The final pellet was resuspended in 20 mM Hepes-NaOH buffer (pH7.4 at 21±3° C.) to a tissue concentration of 7.5 mg.ml^−1, using a teflon-in-glass homogeniser.
Guinea pig cortex membranes (400 μl) were incubated for 165 min at 21±3° C. in a final volume of 500 μl with 20 mM Hepes-NaOH buffer containing [^3H]-R-α-methylhistamine (50 μl; 1 nM) and competing compound. Total and non-specific binding of [^3H]-R-α-methylhistamine were defined using 50 μl of buffer and 50 μl of 10 μM thioperamide, respectively. The assay was terminated by rapid filtration through Whatman GF/B filters, presoaked (2 hr) in 0.1% polyethyleneimine, using a Brandell Cell Harvester. The filters were washed (3×3 ml) with ice-cold 50 mM Tris-HCl (pH6.9 at 21±3° C.), transferred into scintillation vials, 5 ml liquid scintillation cocktail was added and after 4 hours the bound radioactivity was determined by counting (4 min) in a Beckman liquid scintillation counter.
Data are analysed using GraphPad prism and the general equation for a competition curve with variable Hill slope (nH). [formula] where • X is the log concentration of competing compound, • Y is the binding obtained at each concentration of X, • pIC50 is the concentration of the competitor required to compete for half of the specific binding.
The IC50 is converted to the K1 using the Cheng Prusoff equation, K1=IC50/(1+(L/KD)) where • IC50 is the concentration of competitor required to compete for half the specific binding, • L is the radioligand concentration used, • KD is the equilibrium dissociation constant for the radioligand determined by saturation experiments.

[2] = target: T1, Histamine H3 receptor; test: Histamine H3 functional assay, guinea pig ileum (ileal longitudinal muscle, myenteric plexus); design: species or system tissue; conditions: antagonist affinity from rightward shift of R-(α)-methylhistamine E/[A] curves (Schild), typical variance ±0.15 log units; for Kb: read-out: pKb (Guinea pig ileum) (converted)
Experimental: • 1. J. Med. Chem 1994, 314. • 2. WO 97/29092 Histamine H3 Functional Assay—Guinea Pig Ileum
The biological activity of the compounds of the examples was measured using the ileal longitudinal muscle, myenteric plexus assay described by Paton and Aboo Zar (J. Physiol. 1968, 194, 13-33). Male Dunkin-Hartley guinea pigs (250-300 g) were employed. Briefly, a 50 cm portion of ileum proximal to the caecum was removed, after discarding the terminal 20 cm. Ileal segments (3 cm) were cleaned by passing Krebs-Henseleit buffer containing 3 μM mepyramine gently through the ileum using a Pasteur pipette (size: 13.8 cm length, 0.65 cm diameter). To avoid unnecessary damage to the tissue, Krebs-Henseleit buffer was passed through the ileal segment, while it was lying horizontally on a petri dish. Therefore, the ileum was not over-distended and the buffer flowed through with ease. Each segment was then passed over a Pasteur pipette and the longitudinal muscle layer and adhering myenteric plexus was teased away using moist cotton wool, by stroking tangentially away from the mesenteric attachment. The tissues were suspended in 20 ml organ baths containing Krebs-Henseleit buffer at 37±1° C. and gassed with […]. The tissues were ligated to two parallel stainless steel wires, situated between two platinum electrodes (0.76 cm length, 0.06 cm diameter). All measurements were recorded isometrically (Grass FTO3 transducer). Following an initial loading tension of 1 g, the tissues were stimulated with electrical pulses at a frequency of 0.1 Hz and a pulse duration of 0.5 msec, as described by Kosterlitz & Watt (Br. J. Pharmacol. 1968, 266276). Initially, the tissues were stimulated at supramaximal (1.3 fold times maximal) voltage for a period of 30 min and then the tissues were washed and re-stimulated. A “sighter dose” of the selective histamine H3-receptor agonist, R-(α)-methylhistamine (0.3 μM) (Arrang et al. Nature, 1987, 117-123), was administered. Upon generation of response, the “sighter dose” was removed from the tissues by “washout” (6 washes over 60 min) and during this period the electrical stimulation was switched off. The tissues were then re-stimulated and allowed to stabilise prior to the addition of drug treatments, which were allocated on a randomised block basis to the organ baths. Following the incubation period, a single cumulative E/[A] curve was obtained. The experimental E/[A] curve data was expressed as the percentage inhibition of the peak height of electrically-stimulated contraction. Antagonist affinity values were calculated from the degree of rightward shift of the R-(α)-methylhistamine E/[A] curves using Schild's methods (Arunlakshana & Schild Br. J. Pharmacol. 1959, 48-58). Typical variance in this assay is ±0.15 log units.

Compound	Ki [1] [nM]	Kb [2] [nM]	pKi (Guinea pig cortex) ([1]; bis-hydrochloride)	pKb (Guinea pig ileum) [2]	pKi (Guinea pig cortex) [1]
Cl.Cl.N=C(NCCCCCCN1CCCC1)NCC12CC3CC(CC(C3)C1)C2 [Example 31, N-Adamantan-1-yl-methyl-N′-(6-pyrrolidin-1-yl-hexyl)-guanidine bis-hydrochloride]			8.4	8.0	
Cl.Cl.N=C(NCCCCCCCN1CCCC1)NCC12CC3CC(CC(C3)C1)C2 [Example 32, N-Adamantan-1-yl-methyl-N′-(7-pyrrolidin-1-yl-heptyl)-guanidine bis-hydrochloride]				8.0	8.5
N=C(NCCCN1CCCC1)NCCC12CC3CC(CC(C3)C1)C2 [Example 33, N-(2-Adamantan-1-yl-ethyl)-N′-(3-pyrrolidin-1-yl-propyl)-guanidine bis-hydrochloride]	79.4	200			
N=C(NCCCN1CCCC1)NCCCC12CC3CC(CC(C3)C1)C2 [Example 34, N-(3-Adamantan-1-yl-propyl)-N′-(3-pyrrolidin-1-yl-propyl)-guanidine bis-hydrochloride]	316	316			
N=C(NCCCCN1CCCC1)NCCCC12CC3CC(CC(C3)C1)C2 [Example 36, N-(3-Adamantan-1-yl-propyl)-N′-(4-pyrrolidin-1-yl-butyl)-guanidine bis-hydrochloride]	50.1	63.1			
N=C(NCCCCCN1CCCC1)NCCCC12CC3CC(CC(C3)C1)C2 [Example 38, N-(3-Adamantan-1-yl-propyl)-N′-(5-pyrrolidin-1-yl-pentyl)-guanidine bis-hydrochloride]	31.6	63.1			
Cl.Cl.N=C(NCCCCN1CCCC1)NCC1CCCCC1 [Example 40, N-Cyclohexyl-methyl-N′-(4-pyrrolidin-1-yl-butyl)-guanidine bis-hydrochloride]				7.4	8.4
Cl.Cl.N=C(NCCCCCN1CCCC1)NCC1CCCCC1 [Example 41, N-Cyclohexyl-methyl-N′-(5-pyrrolidin-1-yl-pentyl)-guanidine bis-hydrochloride]				7.5	8.9
Cl.Cl.N=C(NCCCCCN1CCCC1)NCC1CCCCCC1 [Example 46, N-Cycloheptyl-methyl-N′(5-pyrrolidin-1-yl-pentyl)-guanidine bis-hydrochloride]				7.7	8.5
N=C(NCCCCCN1CCCC1)NCc1ccccc1 [Example 47, N-Benzyl-N′-(5-pyrrolidin-1-yl-pentyl)-guanidine bis-hydrochloride]	3.98	50.1			
Cc1ccccc1CNC(=N)NCCCCCN1CCCC1 [Example 48, N-(2-Methylbenzyl)-N′-(5-pyrrolidin-1-yl-pentyl)-guanidine bis-hydrochloride]	3.16	25.1			
CN(Cc1ccccc1)C(=N)NCCCCCN1CCCC1 [Example 50, N-Benzyl-N-methyl-N′-(5-pyrrolidin-1-yl-pentyl)-guanidine bis-hydrochloride]	15.8	316			
N=C(NCCCCCN1CCCC1)N1CCc2ccccc2C1 [Example 51, N-(5-Pyrrolidin-1-yl-pentyl)-3,4-dihydro-1H-isoquinoline-2-carboxamidine bis-hydrochloride]	7.94	100			
N=C(NCc1ccc(Cl)cc1)N(CCCCN1CCCC1)Cc1ccc(Cl)cc1 [Example 52, N,N′-Bis-(4-Chlorobenzyl)-N-(4-pyrrolidin-1-yl-butyl)-guanidine bis-hydrochloride]	316	316			
N=C(NCCCCCN1CCCC1)NCc1ccc2ccccc2c1 [Example 53, N-(Naphthalen-2-yl-methyl)-N′-(5-pyrrolidin-1-yl-pentyl)guanidine bis-hydrochloride]	7.94	79.4			
Cl.Cl.N=C(NCCCCN1CCCC1)NCc1ccc(-c2ccccc2)cc1 [Example 54, N-Biphenyl-4-yl-methyl-N′-(4-pyrrolidin-1-yl-butyl)-guanidine bis-hydrochloride]				7.1	7.3

Further lines, with some results ahead:

Ki [1] [nM]	Kb [2] [nM]	Compound	pKi (Guinea pig cortex) ([1]; bis-hydrochloride)	pKb (Guinea pig ileum) [2]	pKi (Guinea pig cortex) [1]
7.94	20	N=C(NCCCCN1CCCC1)NCCC12CC3CC(CC(C3)C1)C2 [Example 35, N-(2-Adamantan-1-yl-ethyl)-N′-(4-pyrrolidin-1-yl-butyl)-guanidine bis-hydrochloride]			
12.6	25.1	N=C(NCCCCCN1CCCC1)NCCC12CC3CC(CC(C3)C1)C2 [Example 37, N-(2-Adamantan-1-yl-ethyl)-N′-(5-pyrrolidin-1-yl-pentyl)-guanidine bis-hydrochloride]			
25.1	398	N=C(NCCCN1CCCC1)NCCC1CCCCC1 [Example 42, N-(2-Cyclohexyl-ethyl)-N′-(3-pyrrolidin-1-yl-propyl)-guanidine bis-hydrochloride]			
100	200	N=C(NCCCC1CCCCC1)NCCCN1CCCC1 [Example 43, N-(3-Cyclohexyl-propyl)-N′-(3-pyrrolidin-1-yl-propyl)-guanidine bis-hydrochloride]			
1.58	25.1	C[C@@H](NC(=N)NCCCCN1CCCC1)C1CCCCC1 [Example 44, N-(1(R)-Cyclohexyl-ethyl)-N′-(4-pyrrolidin-1-yl-butyl)-guanidine bis-hydrochloride]			
3.98	31.6	C[C@H](NC(=N)NCCCCN1CCCC1)C1CCCCC1 [Example 45, N-(1(S)-Cyclohexyl-ethyl)-N′(4-pyrrolidin-1-yl-butyl)-guanidine bis-hydrochloride]			
6.31	31.6	C[C@H](NC(=N)NCCCCCN1CCCC1)c1ccccc1 [Example 49, N-(1(S)-Phenyl-ethyl)-N′-(5-pyrrolidin-1-yl-pentyl)-guanidine bis-hydrochloride]			
20	63.1	N=C(NCCCCN1CCCC1)NCc1ccc(C2CCCCC2)cc1 [Example 56, N-(4-Cyclohexylbenzyl)-N′-(4-pyrrolidin-1-yl-butyl)-guanidine bis-hydrochloride]			
3.16	200	N=C(NCCCCCN1CCCC1)NCC1CCCCO1 (centres unmarked) [Example 58, N-(5-Pyrrolidin-1-yl-pentyl)-N′-(tetrahydro-pyran-2-yl-methyl)-guanidine bis-hydrochloride]			
